Data on 88 compounds can be found in a melting point compilation (Tetko et al.; mined from patent text by program, amines drawn as free bases though some values may be those of a salt).

The term melting point denotes the temperature, or range, at which the solid turns liquid. In turn, `O=c1cc(-c2ccncc2)nc2n1CCCN2` showed a melting point of 219 °C.

Compound `C#Cc1ccc2c(C(=O)c3ccc(OCCN4CCCCC4)cc3)c(-c3ccc(O)cc3)sc2c1` had a melting point of 97 to 100 °C.

For the compound `COC(=O)CCNC(=O)c1ccc2c(c1)nc(-c1ccc(C#N)cc1)n2CCC(c1ccccc1)c1ccccc1`, the melting point lay within 157 to 159 °C.

With `O=C1N(Cc2ccccc2)c2cc(Cl)ccc2N=C2CCCC12Cc1ccccc1` (stereo not drawn), the melting point lay within 139 to 141 °C.

With `CC(=O)/C=C(\C)c1ccc(-c2ccccc2)c(Cl)c1`, the melting point lay within 66 to 67 °C.

Compound `CNC(=O)c1cccc(C=O)c1O` returned a melting point of 129 to 131 °C.

`O=C(Nc1ccc(O)cc1)C1CCCCC12OCCO2` (stereo not drawn): the melting point is 173 to 174 °C.

Take `COCOc1cc(OC)ccc1C(=O)c1ccc(OCc2nc(-c3ccccc3)oc2C)cc1C`: the melting point was 107 to 108 °C.

`COc1cc(COc2nn(-c3ccccc3)cc2C=O)ccc1OCc1csc(N2CCCCC2)n1` gave a melting point of 123 to 124 °C.

Take `CCN(CC)c1ccc(NC(=O)N(C[C@H]2CC[C@H](CN(C(=O)Nc3ccc(N(CC)CC)cc3)C3CCCCC3)CC2)C2CCCCC2)cc1`: the melting point is 212 to 217 °C.

As for `CCN(CC)C(=O)c1c(-c2ccccc2)[nH]c2ccccc12`, the melting point was in the range of 224 to 226 °C.

Consider `Cc1c(CC(=O)O)oc2ccccc12`, for which the melting point amounted to 108 °C.

The compound `CN(C)c1nc(O)ns1` returned a melting point of 142 °C.

Compound `Cc1cc2[nH]nnc2c(Br)c1C` registered a melting point of 255 to 262 °C.

Regarding `CN(C)CCC1(c2ccccc2)CCc2ccccc2C1=O` (stereo not drawn), the melting point lay within 71 to 72 °C.

Take `Cc1ccc(NC(=O)OCc2ccco2)cc1NC(=O)OCc1ccco1`: the melting point lay in the range of 154 to 156 °C.

`COc1ccc2c(Cc3ccco3)nnc(N3CCCC3)c2c1` yielded a melting point of 148 to 149 °C.

Compound `CCN1C=C(N)N=C(C2CC2)c2ccccc21` displayed a melting point of 93 to 95 °C.

In turn, `CNc1ccc(-c2ccnc(-c3cn(C)c(=O)n3-c3ccc(C(C)(C)C#N)cc3)c2)cn1` returned a melting point of 191 °C.

Consider `CC1(C)CCC(C)(C)c2cc(-c3cc(-c4ccc(C(=O)O)cc4)ccc3OCCCCNC3CC3)ccc21`, for which the melting point is 160 °C.

Consider `CCOC(=O)C(C)(C)Oc1ccc(C#CC(=O)c2ccc(Cl)cc2)cc1`, for which the melting point is 68 to 70 °C.

`C[C@H](CN(O)C(N)=O)NC(=O)OC(C)(C)C` yielded a melting point of 156 to 160 °C.

With `CCOC(=O)C1=Cc2cc(Cl)cc(-c3nc4ccccc4[nH]3)c2OC1C(F)(F)F` (stereo not drawn), the melting point is more than 300 °C.

For `CCCOc1cc(-n2c(=O)cc(C(F)(F)F)n(C)c2=O)c(F)cc1Cl`, the melting point is 103 to 104 °C.

With `COC(=O)C(NC(=O)c1cc2cc(Cl)ccc2[nH]1)C(C)c1ccccc1` (stereo not drawn), the melting point fell in the range of 135 to 136 °C.

`COC(=O)C(Oc1cc(OCc2ccccc2)ccc1C#N)c1ccccc1C` (racemic) registered a melting point of 134 to 136 °C.

Turning to `CS(=O)c1nc2ccc(C(F)(F)F)cc2[nH]1` (stereo not drawn), the melting point came to 135 °C.

`O=C(O)c1cc2ccccc2n1Cc1cccc(Cl)c1` returned a melting point of 188 to 189 °C.

The compound `CC(C)(C)OC(=O)NOCCC(=O)Oc1c(F)c(F)c(F)c(F)c1F` showed a melting point of 58 to 59 °C.

Compound `CC(C)CC1(C(CCN2C(=O)c3ccccc3C2=O)C(=O)NO)CCN(CCc2ccccc2)C1=O` (stereo not drawn) came in with a melting point of 102 to 105 °C.

In turn, `O=C(N1CCCN(C(=O)C(F)(F)F)CCN(C(=O)C(F)(F)F)CCCN(C(=O)C(F)(F)F)CC1)C(F)(F)F` registered a melting point of 217 to 218 °C.

In the case of `COc1ccc(C2=NOC3(CCOC3=O)C2)cc1OC1CCCC1` (stereo not drawn), the melting point is 152 to 153 °C.

On to `COc1ccc(-c2c(C(C)=O)c(Cn3cncn3)nc3cc(OC)c(OC)cc23)cc1OC`, for which the melting point lay in the range of 180 to 181 °C.

The compound `Cc1nc(-c2cc(C)c(OCCCc3cc(C(F)(F)F)no3)c(C)c2)no1` returned a melting point of 62 to 64.5 °C.

Turning to `CCN(CC)CCn1c(=O)c2cnc3c(cnn3CC)c2n2nc(C)cc12`, the melting point is 90 to 92 °C.

Take `O=C(Nc1ccc(CN2C(=O)C3CCCC3N(C(=O)CN3C(=O)c4ccccc4C3=O)c3ccccc32)cc1)c1ccc2ccccc2c1` (stereo not drawn): the melting point is 191 to 194 °C.

Take `C[Si](C)(C)C#Cc1cccc2ccccc12`: the melting point was 41 to 43 °C.

Compound `Clc1ccc(-c2cc(C3CC3)n3ncc(I)c3n2)cc1` returned a melting point of 189 to 190 °C.

`S=c1cc(-c2cnccn2)ss1` yielded a melting point of 196 °C.

For the compound `CCCN(CCCCc1c[nH]c2ccc(F)cc12)C1COc2c(F)ccc(C(=O)NC)c2C1` (stereo not drawn), the melting point came to 110 °C.

As to `CC[C@@]12C[C@@](C)(O)[C@](O)(c3ccccc3)C[C@H]1CCc1cc(OCC(=O)NCCCC#N)ccc12`, the melting point was 185 to 186 °C.

Turning to `Oc1ccc(CCCC2OCCO2)cc1`, the melting point is 67 to 68 °C.

`O=[N+]([O-])c1cccc([N+](=O)[O-])c1F` returned a melting point of 50 °C.

Compound `CC(c1ccncn1)C(O)(Cn1cncn1)c1ccc(F)cc1F` (stereo not drawn) yielded a melting point of 114 to 116 °C.

Take `CCC(CC)(CC)C(=O)NC(C)(C)CO`: the melting point is 57 to 58 °C.

As for `Cc1ccc(-c2nccc3c(CO)cccc23)cc1`, the melting point was 195 °C.

`CN(CC(=O)N[C@@H](CCC(N)=O)C(N)=O)C(=O)OCc1ccccc1` had a melting point of 186 to 196 °C.

As for `COC(=O)c1ccccc1OCCOc1cccc2oc(-c3ccccc3)cc(=O)c12`, the melting point was in the range of 160 to 161 °C.

Turning to `CCOc1ccc(F)cc1C(C)(C)CC(O)(Cn1ccc(=O)c2ccccc21)C(F)(F)F` (stereo not drawn), the melting point was 195 to 196 °C.

The compound `Nc1nc(NCCc2ccccc2)nc(-c2cc(Cl)ccc2Cl)n1` gave a melting point of 217 to 218 °C.

`CC(C)c1ccc(N(Cc2ccc(N(C)C)cc2)C(=O)C2CC(=O)Nc3ccccc32)cc1` (stereo not drawn) registered a melting point of 170 °C.

As for `CN1CCN(C(=O)c2cc(-c3ccccc3)c(=O)[nH]c2-c2c(Cl)cccc2C#N)CC1`, the melting point was 250 to 253 °C.

Compound `Cc1cccc2[nH]c(=O)n(S(=O)(=O)c3ccc(Cl)cc3)c(=O)c12` displayed a melting point of more than 250 °C.

As to `COCc1nnc(SCC(=O)C23CC4CC(CC(C4)C2)C3)n1C`, the melting point was 109 to 111 °C.

As for `CC(C)(C)c1cc(C2N(c3ccc(Cl)cc3)CCN2c2ccc(Cl)cc2)cc(C(C)(C)C)c1O`, the melting point is 220 to 222 °C.

`CCNC(=S)c1ccc2c(c1)Nc1ccccc1S2` came in with a melting point of 155 to 156 °C.

Take `CCCCCCc1ccc2c(c1)NC(NC(C)C)=NS2(=O)=O`: the melting point was 319 to 321 °C.

For `O=C1NC(=O)C(Nc2ccc(CCNCC(O)COc3cccc4ccccc34)cc2)S1` (stereo not drawn), the melting point fell in the range of 61 to 62 °C.

The compound `COC(=O)c1ccc(OCCNC(=O)C2Cc3ccccc3N2S(=O)(=O)c2ccc(-c3ccc(F)cc3)cc2)c(Cl)c1` (stereo not drawn) had a melting point of 84 to 90 °C.

As to `C=CCC(C(=O)O)(c1ccccc1)c1ccccc1`, the melting point lay within 134 to 137 °C.

For the compound `NC(=O)N(O)Cc1cccc2ccsc12`, the melting point fell in the range of 138 to 140 °C.

With `COC(=O)c1cccc(-c2cccc3c2nc(N(C)c2cccc(C(F)(F)F)c2)n3C)c1`, the melting point is 148 to 149 °C.

On to `Clc1nnc(C(Cl)(Cl)Cl)s1`, for which the melting point is 41 °C.

In turn, `COc1ccc(OCC(N)=O)c([N+](=O)[O-])c1` displayed a melting point of 190 to 191 °C.

In turn, `O=C(NCO)N1CC(Oc2cccc(C(F)(F)F)c2)C1` had a melting point of 113 to 115 °C.

In the case of `Cc1cc(Oc2ccccc2)ccc1[N+](=O)[O-]`, the melting point is 43 to 46 °C.

In turn, `CCCCCCC1c2cc(CBr)ccc2-c2ccc(CBr)cc21` had a melting point of 143 to 145 °C.

Compound `Cc1ccc(-n2c(=O)c(O)nc3cccnc32)cc1` returned a melting point of more than 300 °C.

With `CCCCCCCCCCCCN(CCCCCCCCCCCC)c1ccccc1C1=c2ccc(=C3C(=O)c4ccccc4C3=O)cc2OC1=O`, the melting point was found to be 155 °C.

In the case of `C#CCC(O)(Cn1cncn1)c1ccc(Oc2ccc(Cl)cc2)cc1Cl` (stereo not drawn), the melting point was determined as 124 °C.

Consider `CC1(O)CC(=O)OC(C=Cc2ccc(OCc3ccccc3)cc2)C1` (stereo not drawn), for which the melting point was in the range of 155 to 156 °C.

The compound `CC1N(C)C=C([N+](=O)[O-])N1CCOC(=O)Nc1cccc(C(N)=O)c1` (stereo not drawn) displayed a melting point of 207 °C.

Take `N#Cc1ccc(OCCCCC(=O)O)cc1`: the melting point amounted to 160 °C.

On to `CCN(CC)CCCCNc1ncc2c(n1)N(C1CC1)C(=O)N(c1c(F)c(OC)cc(OC)c1F)C2`, for which the melting point was 139 to 141 °C.

Compound `Oc1ccc2c(c1)CCCC(c1ccccc1)=C2c1ccc(OCCCCCSCc2ccccc2)cc1` came in with a melting point of 178 to 186 °C.

As to `CC(C)n1cc(-c2ccc(Oc3ccccc3)cc2)c2c(N)ncnc21`, the melting point is 155 to 156 °C.

`C=C(C)C(=O)OCCCc1cc(CCCOC(=O)C(=C)C)c2oc(=O)c(-c3ccc(OC(=O)C(=C)C)cc3)cc2c1` displayed a melting point of 49 °C.

`Cc1ccc(N=C(Nc2ccc(C)cc2)ON2C(C)(C)CC(OC(=O)c3ccccc3)CC2(C)C)cc1` registered a melting point of 124 to 128 °C.

As for `N#Cc1c(-c2ccc(Cl)cc2)[nH]c(C(F)(F)F)c1C(F)(F)F`, the melting point worked out at 208 °C.

For the compound `Cc1cc(Cc2cnc(N)nc2N)cc(C)c1N`, the melting point was in the range of 258 to 260 °C.

For `O=c1[nH]c2ncc(-c3ccccn3)nc2n1CC1CCCCC1`, the melting point was in the range of 194 to 196 °C.

`COc1c(C)c(C)cc(C)c1C(O)(c1ccccc1)C(C)C` (stereo not drawn) had a melting point of 80 to 81 °C.

As for `CCSc1nnc(S)n1N`, the melting point is 172 °C.

`CCCCCC1=CCC(c2cc(F)c(C#N)c(F)c2)C=C1` (stereo not drawn) showed a melting point of 59 °C.

`CN(C)c1nc(=O)c2cccnc2n1Cc1ccc(F)cc1` displayed a melting point of 167 to 170 °C.

As for `CC(=O)Nc1ccc(Nc2c(NCc3ccccc3)cc(C(=O)O)cc2S(=O)(=O)Nc2ccccc2NC(C)=O)cc1`, the melting point is 268 °C.

`COc1ccc(CCNC(=O)CNc2cc(Cl)ccc2C(N)=O)cc1OC`: the melting point was determined as 168 °C.

In the case of `Nc1sc2c(c1C(=O)c1ccc(I)c3ccccc13)CCCC2`, the melting point lay in the range of 180 to 182 °C.
